The results in this text go back to ChEMBL document CHEMBL1921737, “Utilizing G-quadruplex formation to target 8-oxoguanine in telomeric sequences” (Bioorg Med Chem Lett, 2011).

Assay type in all cases: nucleic-acid assay
Test [1] concerns Nucleic Acid. Description: Induction of telomeric [32P] G-quadruplex DNA 5'-d(GOxodGTTAGGGTTAGGGTTAGGGTTAGGG) adduct formation at 4 uM for 30 mins in presence of Na2IrCl6 by PAGE method.
For test [2], the system named is Nucleic Acid. Description: Binding affinity to telomeric Duplex DNA 5'-d(CGTTCAGAGCCGOxodGTTACGTCCTTCAT) 3'-d(CGAAGTCTGGCCAATGCAGGAAGTA) at 1 to 10 uM by CD titration method in presence of 100 mM of KCl.
Test [3] has as its system Nucleic Acid. Description: Induction of telomeric [32P] Duplex DNA 5'-d(CGTTCAGAGCCGOxodGTTACGTCCTTCAT) 3'-d(CGAAGTCTGGCCAATGCAGGAAGTA) adduct formation at 4 uM for 30 mins in presence of Na2IrCl6 by PAGE method.
In test [4] the test system is Nucleic Acid. Description: Induction of telomeric [32P] G-quadruplex DNA 5'-d(AGGGTTAGOxodGGTTAGGGTTAGGGTGTT) adduct formation at 4 uM for 30 mins in presence of Na2IrCl6 by PAGE method.
Test [5] deals with Nucleic Acid. Description: Binding affinity to telomeric G-quadruplex DNA 5'-d(AOxodGGTTAGGGTTAGGGTTAGGGTGTT) at 1 to 10 uM by CD titration method in presence of 100 mM of KCl.
Test [6] relates to Nucleic Acid. Description: Binding affinity to telomeric G-quadruplex DNA 5'-d(AGGGTTAGOxodGGTTAGGGTTAGGGTGTT) at 1 to 10 uM by CD titration method in presence of 100 mM of KCl.
Test [7] concerns Nucleic Acid. Description: Binding affinity to telomeric G-quadruplex DNA 5'-d(GOxodGTTAGGGTTAGGGTTAGGGTTAGGG) at 1 to 10 uM by CD titration method in presence of 100 mM of KCl.
Test [8] deals with Nucleic Acid. Description: Binding affinity to telomeric G-quadruplex DNA 5'-d(AGGGTTAGGGTTAGGGTTAGGG) by UV titration method.
Test [9] concerns Nucleic Acid. Description: Induction of telomeric [32P] G-quadruplex DNA 5'-d(AGGGTTAGGGTTAOxodGGGGTTAGGGTGTT) adduct formation at 4 uM for 30 mins in presence of Na2IrCl6 by PAGE method.
The subject of test [10] is Nucleic Acid. Description: Induction of telomeric [32P] G-quadruplex DNA 5'-d(GOxodGTTAGGGTTAGGGTTAGGGTTAGGG) assessed as adducts decomposition half life at 4 uM for 30 mins in presence of Na2IrCl6 by PAGE method.
Test [11] relates to Nucleic Acid. Description: Binding affinity to telomeric G-quadruplex DNA 5'-d(AGGGTTAGGGTTAGGGTTAGGG) assessed as increase in melting temperature at 2 uM by UV thermal denaturation analysis.
Test [12] relates to Nucleic Acid. Description: Induction of telomeric [32P] G-quadruplex DNA 5'-d(AOxodGGTTAGGGTTAGGGTTAGGGTGTT) assessed as adducts decomposition half life at 4 uM for 30 mins in presence of Na2IrCl6 by PAGE method.
In test [13] the test system is Nucleic Acid. Description: Binding affinity to telomeric G-quadruplex DNA 5'[32P]-d(AGGGTTAGGGTTAOxodGGGGTTAGGGTGTT) at 1 to 10 uM by CD titration method in presence of 100 mM of KCl.
The subject of test [14] is Nucleic Acid. Description: Induction of telomeric [32P] G-quadruplex DNA 5'-d(AOxodGGTTAGGGTTAGGGTTAGGGTGTT) adduct formation at 4 uM for 30 mins in presence of Na2IrCl6 by PAGE method.
The test system of test [15] is Nucleic Acid. Description: Binding affinity to telomeric G-quadruplex DNA 5'-d(AGGGTTAGGGTTAGGGTTAGGG) at 1 to 10 uM by CD titration method in presence of 100 mM of KCl.

Usually Kd stands for a measure of binding affinity in units of concentration. Low values mean a tighter complex, high ones a looser complex. The term Tm denotes the temperature at which the thermal transition is half complete.

Activity calls are given as the source filed them. No cut-off for these calls is given here.

`NCCCNCCCCNCCCN1C(=O)c2ccc3c4ccc5c6c(ccc(c7ccc(c2c37)C1=O)c64)C(=O)N(CCCNCCCCNCCCN)C5=O`: in the test with Nucleic Acid [1], the outcome was Active.
With `NCC(CN)CCC(=O)NCCCN1C(=O)c2ccc3c4ccc5c6c(ccc(c7ccc(c2c37)C1=O)c64)C(=O)N(CCCNC(=O)CCC(CN)CN)C5=O`, the result in the test on Nucleic Acid [2], in the test on Nucleic Acid [3], in the test on Nucleic Acid [5], in the test on Nucleic Acid [7], with Nucleic Acid [13] and in the test with Nucleic Acid [14] was Active. In addition, the outcome in the test on Nucleic Acid [1] and with Nucleic Acid [15] was Active. The result in the test on Nucleic Acid [4], with Nucleic Acid [6] and in the test on Nucleic Acid [9] was inactive. The Kd on Nucleic Acid [8] amounted to 860 nM. The T1/2 in the test on Nucleic Acid [10] and in the test on Nucleic Acid [12] was 36 h throughout. Further, the Tm in the test with Nucleic Acid [11] is 5.2 °C.
